Laboratory results: article PMC10510324, “A Biomimetic C-Terminal Extension Strategy for Photocaging Amidated Neuropeptides” (Journal of the American Chemical Society, 2023)
Starred links: 1 amine or outer side, 2 acyl side, 3 side chain; linkers in the order of their positions; H or OH if unused. Non-standard residues stand in square brackets, D forms with d. Residues, ends and D or L forms follow the SMILES beside them. No end group written: not given here. X1 = COc1cc(C(CC(=O)[*:2])N[*:1])c([N+](=O)[O-])cc1OC; DMNBA = dimethoxynitrobenzyl beta-alanine, racemic

What was measured:
[1] = biological target: T1, GRPR (Mus musculus, UniProt P21729); test: Whole-cell recording of membrane currents, VIP interneurons of motor cortex, acute brain slices; format: cell-based
T1 construct: from tissue; host or cells: acute mouse brain slices, VIP interneurons of primary motor cortex (VipCre; Ai14 mice)
T1 sequence (P21729 whole entry): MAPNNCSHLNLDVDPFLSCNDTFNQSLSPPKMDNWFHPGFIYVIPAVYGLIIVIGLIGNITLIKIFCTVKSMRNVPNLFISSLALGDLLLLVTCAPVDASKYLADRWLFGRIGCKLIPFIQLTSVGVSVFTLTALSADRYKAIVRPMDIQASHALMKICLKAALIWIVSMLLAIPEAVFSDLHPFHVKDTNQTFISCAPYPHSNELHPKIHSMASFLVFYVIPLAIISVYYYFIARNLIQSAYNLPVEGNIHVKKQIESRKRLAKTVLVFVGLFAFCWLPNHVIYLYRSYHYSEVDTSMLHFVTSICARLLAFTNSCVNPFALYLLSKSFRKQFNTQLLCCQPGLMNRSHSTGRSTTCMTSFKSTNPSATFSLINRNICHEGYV
From the text: (§1) Photoactivatable neuropeptides are powerful tools that can drive studies into the mechanisms of endogenous receptor signaling in acute brain slices.[3],[8],[40] To determine if NPP-caged peptides are compatible with such experiments, we established electrophysiological assays for measuring the activation of GRPR, OTR, NK1R, and CCK2R in acute brain slices taken from transgenic mice. These assays involved whole cell recordings of membrane currents from genetically defined neurons located in different brain regions where endogenous receptor activation produces inward, excitatory currents that facilitate action potential firing. Neuropeptide receptor-expressing cells were identified for fluorescence-guided, targeted electrophysiological recordings using transgenic mice that contain transgenes encoding Cre-recombinase under a promotor that is specific to the cell of interest, as well as a Cre-dependent tdTomato fluorescent protein via the Ai14 (Rosa26-lsl-tdTomato) reporter strain. […]
(§2) (A) Average inward currents over time after bath application of GRP(14-27)-NPP (3 μM, n = 5 cells from 4 mice) or GRP(14-27) (300 nM, n = 5 from 4 mice), recorded from fluorescently labeled VIP interneurons in layer 1 of the motor cortex. Data are expressed as the mean ± SEM. […] Data are expressed as the mean ± SEM. […] Data are expressed as the mean ± SEM. […] Data are expressed as the mean ± SEM. […]

[2] = biological target: T2, gastrin-releasing peptide receptor (GRPR) (Mus musculus, UniProt P21729); test: GloSensor cAMP assay of GPCR activation, GRPR; format: cell-based; settings: for EC50: GloSensor cAMP, n = 10 wells per data point
T2 construct: host or cells: HEK293T
T2 sequence (P21729 whole entry): as above
From the text: To determine the effectiveness of the C-TEx caging strategy at attenuating peptide activity, we conducted a live-cell functional assay of GPCR activation in HEK293T cells transfected to express the primary receptors for each neuropeptide. The GloSensor assay reports changes in cyclic adenosine monophosphate (cAMP) signaling as a function of GPCR activation. […] To adapt this cAMP assay to report the activation of Gq-coupled GPCRs, we coexpressed a chimeric Gαs/Gαq protein (sq5) that allows Gq-coupled GPCRs to strongly engage the Gs pathway to elevate cAMP via activation of adenylyl cyclase.[39]
Figure 3 In vitro characterization of NPP-caged neuropeptides using a functional assay of G protein signaling. (A) Dose–response curves at the gastrin-releasing peptide receptor (GRPR) using a GloSensor assay of cAMP signaling in HEK293T cells (n = 10 wells per data point). Data were normalized to the maximal response to GRP(14-27) (300 nM) and are expressed as the mean ± SEM.
Reagent type (species) Designation Source or Identifiers
GRPR plasmid mGRPR Genscript Clone ID OMu14220D
OTR plasmid hOXR cdna.org Cat # OXTR000000
CCK1R hCCK1R cdna.org Cat # CCKAR00000
CCK2R plasmid hCCK2R cdna.org Cat # CCKBR00000
NK1R plasmid hNK1R cdna.org Cat # TACR100000
HEK293T cells ATCC.org Cat # CRL-3216
GloSensor plasmid pGloSensor - Promega Cat # E2301
GloSensor reagent cAMP Reagent Promega Product # E1291
VIP-IRES-CRE, C57Bl/6J The Jackson background (M. musculus, VipCre Laboratory Cat # 010908
Ai14, C57Bl/6J Rosa26-lsl- The Jackson background (M. musculus, tdTomato (Ai14) Laboratory Cat # 007914 […]
C57Bl/6J background (M. ChatCre The Jackson Cat # 006410 musculus, male and Laboratory
Pvalb-IRES-Cre, C57Bl/6J The Jackson background (M. musculus, PvalbCre Cat # 017320 male and female) Laboratory […]
parent peptide. […] The solutions were illuminated in 15 sec periods, after which samples were removed and analyzed by LC-MS using a linear gradient (water/MeCN 5%/95% → MeCN 100%, 0-8 min with 0.1% formic acid) and a C-18 column (4.6 × 50 mm, 1.8 μm) (Agilent). Each compound was assessed in triplicate. […]

[3] = biological target: T3, OTR (Mus musculus, UniProt P97926); test: Whole-cell recording of membrane currents, PV interneurons of hippocampal CA1 and CA2, acute brain slices; format: cell-based
T3 construct: from tissue; host or cells: acute mouse brain slices, PV interneurons of hippocampal CA1 and CA2 (PvalbCre; Ai14 mice)
T3 sequence (P97926 1-388): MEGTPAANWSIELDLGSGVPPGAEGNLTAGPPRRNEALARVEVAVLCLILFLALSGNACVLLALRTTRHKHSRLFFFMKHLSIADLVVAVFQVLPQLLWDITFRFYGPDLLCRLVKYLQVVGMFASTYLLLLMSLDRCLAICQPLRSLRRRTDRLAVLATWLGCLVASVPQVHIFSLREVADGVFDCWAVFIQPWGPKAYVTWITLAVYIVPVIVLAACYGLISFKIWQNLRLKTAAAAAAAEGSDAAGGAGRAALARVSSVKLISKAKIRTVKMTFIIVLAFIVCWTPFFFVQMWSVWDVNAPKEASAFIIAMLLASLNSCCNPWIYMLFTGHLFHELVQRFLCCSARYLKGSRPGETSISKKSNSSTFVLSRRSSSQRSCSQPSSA
From the text: as §1, §2

[4] = biological target: T4, NK1R (Mus musculus, UniProt P30548); test: Whole-cell recording of membrane currents, striatal cholinergic interneurons, acute brain slices; format: cell-based
T4 construct: from tissue; host or cells: acute mouse brain slices, cholinergic interneurons of dorsal striatum (ChatCre; Ai14 mice)
T4 sequence (P30548 whole entry): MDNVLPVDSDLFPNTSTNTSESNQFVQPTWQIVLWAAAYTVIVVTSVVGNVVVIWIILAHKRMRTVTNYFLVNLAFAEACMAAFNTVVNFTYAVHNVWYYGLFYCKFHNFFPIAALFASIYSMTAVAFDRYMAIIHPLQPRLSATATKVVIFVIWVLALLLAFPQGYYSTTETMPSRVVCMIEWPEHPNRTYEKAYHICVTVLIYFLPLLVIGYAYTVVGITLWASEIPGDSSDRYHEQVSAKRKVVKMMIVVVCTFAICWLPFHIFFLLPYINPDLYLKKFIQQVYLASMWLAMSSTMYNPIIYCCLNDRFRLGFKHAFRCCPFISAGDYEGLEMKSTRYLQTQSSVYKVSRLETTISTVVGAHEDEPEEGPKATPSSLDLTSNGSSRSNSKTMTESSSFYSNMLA
From the text: Photoactivatable neuropeptides are powerful tools that can drive studies into the mechanisms of endogenous receptor signaling in acute brain slices.[3],[8],[40] To determine if NPP-caged peptides are compatible with such experiments, we established electrophysiological assays for measuring the activation of GRPR, OTR, NK1R, and CCK2R in acute brain slices taken from transgenic mice. These assays involved whole cell recordings of membrane currents from genetically defined neurons located in different brain regions where endogenous receptor activation produces inward, excitatory currents that facilitate action potential firing. Neuropeptide receptor-expressing cells were identified for fluorescence-guided, targeted electrophysiological recordings using transgenic mice that contain transgenes encoding Cre-recombinase under a promotor that is specific to the cell of interest, as well as a Cre-dependent tdTomato fluorescent protein via the Ai14 (Rosa26-lsl-tdTomato) reporter strain.
Our experimental framework for evaluating NPP-caged peptides in brain slices is as follows. To assess residual activity, we compared the membrane currents evoked by bath application of the parent peptide and NPP-caged peptide. To evaluate photoactivation, we compared the peak current evoked by a single, high-intensity (20–200 ms, 50–80 mW) light flash from either a 355 nm laser or 365 nm LED, to the current evoked by bath application of the parent peptide, the NPP-caged peptide without light, and NPP-peptide photoactivation in the presence of a receptor antagonist.
(A) Average inward currents over time after bath application of GRP(14-27)-NPP (3 μM, n = 5 cells from 4 mice) or GRP(14-27) (300 nM, n = 5 from 4 mice), recorded from fluorescently labeled VIP interneurons in layer 1 of the motor cortex. Data are expressed as the mean ± SEM. (B) Average inward currents evoked by photoactivation of GRP(14-27)-NPP (3 μM) with an […] light flash in the absence (green, n = 10 cells from 4 mice) and presence of the GRPR antagonist BW1023U90 (1 μM) (black, n = 6 cells from 2 mice). […] Data are expressed as the mean ± SEM. […] Data are expressed as the mean ± SEM. […] Data are expressed as the mean ± SEM. […] Data are expressed as the mean ± SEM.
Brain slice preparation. All procedures were performed in accordance with protocols approved by the University of California San Diego Institutional Animal Care and Use Committee (IACUC) following guidelines described in the US National Institutes of Health Guide for Care and Use of Laboratory Animals (UCSD IACUC protocol S16171). Experiments were conducted using mice of both sexes and the data were combined. From Vip Cre; Rosa26-lsl-tdTomato (Ai14), mouse age ranged from P15-30. From Pvalb Cre; Rosa26-lsl-tdTomato (Ai14), mouse age ranged from P20-35. From Chat Cre; Rosa26-lsl-tdTomato (Ai14), mouse age ranged from P40-100. Mice were anesthetized with isoﬂurane and decapitated, and the brain was removed, blocked, and mounted in a VT1000S vibratome (Leica Instruments). For recordings from cortex and striatum, coronal slices (300 μm) were prepared, and for hippocampus, horizontal slices

[5] = biological target: gastrin-releasing peptide receptor (UniProt P30550)
gastrin-releasing peptide receptor, sequence (P30550 whole entry): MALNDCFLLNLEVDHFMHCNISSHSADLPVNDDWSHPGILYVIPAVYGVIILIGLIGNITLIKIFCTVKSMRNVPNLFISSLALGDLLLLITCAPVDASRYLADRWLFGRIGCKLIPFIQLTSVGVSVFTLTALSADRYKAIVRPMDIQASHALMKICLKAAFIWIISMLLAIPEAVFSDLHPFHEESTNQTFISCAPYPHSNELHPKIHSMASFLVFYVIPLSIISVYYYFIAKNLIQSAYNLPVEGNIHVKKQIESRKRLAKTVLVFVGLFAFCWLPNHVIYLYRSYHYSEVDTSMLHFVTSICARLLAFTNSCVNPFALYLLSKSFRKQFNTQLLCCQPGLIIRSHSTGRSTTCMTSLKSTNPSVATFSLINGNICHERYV

3-Phenylpropanoyl-His-Trp-Ala-Val-D-Ala-His-D-Pro-CH2NH-Phe-NH2 [BW1023U90]
block of light-evoked GRP(14-27)-NPP current ([1]; antagonist 1 μM): completely blocked

CSCC[C@H](NC(=O)[C@H](CC(C)C)NC(=O)[C@H](Cc1c[nH]cn1)NC(=O)CNC(=O)[C@@H](NC(=O)[C@H](C)NC(=O)[C@H](Cc1c[nH]c2ccccc12)NC(=O)[C@H](Cc1c[nH]cn1)NC(=O)[C@H](CC(N)=O)NC(=O)CNC(=O)[C@H](CCCNC(=N)N)NC(=O)[C@@H]1CCCN1C(=O)[C@H](Cc1ccc(O)cc1)NC(=O)[C@@H](N)CCSC)C(C)C)C(N)=O [GRP(14-27), Gastrin-releasing peptide (14-27)]
EC50 ([2]; HEK293T cells coexpressing chimeric Gαs/Gαq (sq5), normalized to GRP(14-27) 300 nM): 0.0006 µM
peak current amplitude, bath application ([1]; 300 nM, n = 5 cells from 4 mice, held at −55 mV, mean ± SEM): −62.8 ± 12.8

COc1cc(C(CC(=O)N[C@@H](CCCNC(=N)N)C(=O)N[C@@H](CCCCN)C(=O)N2CCC[C@H]2C(=O)N[C@@H](CCC(=O)O)C(=O)N[C@@H](CCCCN)C(=O)O)NC(=O)[C@H](CCSC)NC(=O)[C@H](CC(C)C)NC(=O)[C@H](Cc2c[nH]cn2)NC(=O)CNC(=O)[C@@H](NC(=O)[C@H](C)NC(=O)[C@H](Cc2c[nH]c3ccccc23)NC(=O)[C@H](Cc2c[nH]cn2)NC(=O)[C@H](CC(N)=O)NC(=O)CNC(=O)[C@H](CCCNC(=N)N)NC(=O)[C@@H]2CCCN2C(=O)[C@H](Cc2ccc(O)cc2)NC(=O)[C@@H](N)CCSC)C(C)C)c([N+](=O)[O-])cc1OC (stereo partly drawn) [GRP(14-27)-NPP] (H-MYPRGNHWAVGHLM[X1]RKPEK-OH)
EC50 ([2]; HEK293T cells coexpressing sq5, no light): 6.1 µM
reduction of EC50 (potency) at the GRPR by NPP-caging ([2]; caged versus parent peptide): ~10,000 fold

CC[C@H](C)[C@@H]1NC(=O)[C@H](Cc2ccc(O)cc2)NC(=O)[C@@H](N)CSSC[C@@H](C(=O)N2CCC[C@H]2C(=O)N[C@@H](CC(C)C)C(=O)NCC(N)=O)NC(=O)[C@H](CC(N)=O)NC(=O)[C@H](CCC(N)=O)NC1=O [OT, Oxytocin]
peak current amplitude, bath application ([3]; 300 nM, n = 7 from 4 mice, held at -70 mV, mean ± SEM): −35.8 ± 5.7

COc1ccccc1CC(=N)N1C[C@@H]2C(=O)CCC(c3ccccc3)(c3ccccc3)[C@@H]2C1 [RP67580, (3aR,7aR)-Octahydro-2-[1-imino-2-(2-methoxyphenyl)ethyl]-7,7-diphenyl-4H-isoindol]
block of light-evoked SP-NPP current ([4]; antagonist 10 μM): largely blocked

(d(CH2)5^1,Tyr(Me)^2,Thr^4,Orn^8,des-Gly-NH2^9)-Vasotocin [OTA]
block of light-evoked OT-NPP current ([3]; antagonist 1 μM): blocked

SP-NPP: NPP-caged substance P
peak current amplitude, bath application without light ([4]; 1 μM, 1:1 mixture of diastereomers, n = 6 cells from 5 mice, mean ± SEM): −5.2 ± 13.6
peak current amplitude, photoactivation (+ UV) ([4]; 1 μM, 1 × 20 ms, 84 mW, 365 nm LED, n = 5 cells from 5 mice, mean ± SEM): −265.5 ± 19.7
activity on bath application without light ([4]; 3 μM as printed in the text, 1:1 mixture of diastereomers): inactive
τon of light-evoked current ([4]; 1 × 20 ms, 84 mW, 365 nm LED): 1.1 s
τoff slow of light-evoked current ([4]; 1 × 20 ms, 84 mW, 365 nm LED, biphasic decay): 19.5 s

B1: GRP(14-27)-NPP (peptide)
peptide: MYPRGNHWAVGHLM[DMNBA]RKPEK
modifications: also: DMNBA racemic, diastereomers not resolved
EC50 of receptor activation, GloSensor cAMP assay in HEK293T cells co-expressing the chimeric Gαs/Gαq protein sq5 [5]: 6.1 µM

B2: gastrin-releasing peptide (14-27) (peptide)
peptide: MYPRGNHWAVGHLM-NH2
EC50 of receptor activation, GloSensor cAMP assay in HEK293T cells co-expressing the chimeric Gαs/Gαq protein sq5 [5]: 0.0006 µM
